From the Kinase Knowledgebase extract (Sharma et al. 2016)

Biological target: MAPK14 (human) (UniProt Q16539)
Test: Inhibition of MAPK14 Kinase Activity

Chain of MAPK14 (human) (Q16539 whole entry, looked up): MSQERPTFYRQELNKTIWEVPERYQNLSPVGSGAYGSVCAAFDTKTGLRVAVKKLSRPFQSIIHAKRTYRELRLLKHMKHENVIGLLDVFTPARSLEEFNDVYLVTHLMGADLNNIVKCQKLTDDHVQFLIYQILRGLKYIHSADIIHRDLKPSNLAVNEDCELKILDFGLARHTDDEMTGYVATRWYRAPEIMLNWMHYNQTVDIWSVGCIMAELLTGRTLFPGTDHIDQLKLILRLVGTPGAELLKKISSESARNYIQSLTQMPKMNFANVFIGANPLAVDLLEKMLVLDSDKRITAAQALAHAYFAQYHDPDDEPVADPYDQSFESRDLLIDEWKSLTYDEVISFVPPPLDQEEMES

Row | IC50 [nM] | SMILES
1 | < 1000 | Cc1ccc(-n2c(=O)ccc3c(Nc4ccc(F)cc4F)c(C(=O)N4CC[C@@H](O)C4)sc32)cc1
2 | < 1000 | Cc1cc(Nc2c(C(=O)N3CCC[C@@H]3CO)sc3c2ccc(=O)n3-c2ccccc2)ccc1F
3 | < 1000 | O=C(c1sc2c(ccc(=O)n2-c2ccccc2)c1Nc1ccc(F)cc1F)N1CC[C@H](O)C1
4 | < 1000 | COC[C@H]1CCCN1C(=O)c1sc2c(ccc(=O)n2-c2ccccc2)c1Nc1ccccc1
5 | < 1000 | O=C(c1sc2c(ccc(=O)n2-c2ccccc2)c1Nc1ccc(F)cc1F)N1CCC[C@H]1CO
6 | < 1000 | CC(C)(O)[C@H]1CCCN1C(=O)c1sc2c(ccc(=O)n2-c2ccccc2)c1Nc1ccc(F)cc1F
7 | < 1000 | N#Cc1ccccc1Nc1c(C(=O)N2CCC[C@@H]2CO)sc2c1ccc(=O)n2-c1ccccc1
8 | < 1000 | NC1CCN(C(=O)c2sc3c(ccc(=O)n3-c3ccccc3)c2Nc2ccc(F)cc2F)C1 (configuration not stated)
9 | < 1000 | O=C(c1sc2c(ccc(=O)n2-c2ccc(F)cc2)c1Nc1ccc(F)cc1F)N1CC[C@@H](O)C1
10 | < 1000 | O=C(c1sc2c(ccc(=O)n2-c2ccccc2Cl)c1Nc1ccc(F)cc1F)N1CC[C@H](O)C1
11 | < 1000 | Cc1ccc(-n2c(=O)ccc3c(Nc4ccc(F)c(C)c4)c(C(=O)N4CCC[C@@H]4CO)sc32)cc1
12 | < 1000 | O=c1ccc2c(Nc3ccc(F)cc3F)c(S(=O)(=O)N3CCC[C@@H]3CO)sc2n1-c1ccccc1
13 | < 1000 | Cc1ccc(-n2c(=O)ccc3c(Nc4cccc(C)c4)c(C(=O)N4CCC[C@@H]4CO)sc32)cc1
14 | < 1000 | Cc1cccc(Nc2c(C(=O)N3CCC[C@@H]3CO)sc3c2ccc(=O)n3-c2ccccc2)c1
15 | < 1000 | Cc1cc(Nc2c(C(=O)N3CC[C@@H](O)C3)sc3c2ccc(=O)n3-c2ccccc2)ccc1F
16 | < 1000 | N#Cc1cccc(Nc2c(C(=O)N3CCC[C@@H]3CO)sc3c2ccc(=O)n3-c2ccccc2)c1
17 | < 1000 | O=C(c1sc2c(ccc(=O)n2-c2ccccc2)c1Nc1ccccc1)N1CCC[C@H]1CO
18 | < 1000 | O=C(c1sc2c(ccc(=O)n2-c2ccccc2)c1Nc1ccccc1)N1CCC[C@@H]1CO
19 | < 1000 | CN(C)C1CN(C(=O)c2sc3c(ccc(=O)n3-c3ccccc3)c2Nc2ccc(F)cc2F)C1
20 | < 1000 | Cc1ccc(-n2c(=O)ccc3c(Nc4ccc(F)c(C)c4)c(C(=O)N4CC[C@@H](O)C4)sc32)cc1
21 | < 1000 | Cc1cc(Nc2c(C(=O)N3CC[C@@H](N)C3)sc3c2ccc(=O)n3-c2ccccc2)ccc1F
22 | < 1000 | O=C(c1sc2c(ccc(=O)n2-c2ccccc2)c1Nc1ccc(F)c(Cl)c1)N1CCC[C@H]1CO
23 | < 1000 | O=C(c1sc2c(ccc(=O)n2-c2ccccc2)c1Nc1ccc(F)cc1F)N1C[C@@H](O)[C@H](O)C1
24 | < 1000 | O=C(c1sc2c(ccc(=O)n2-c2ccccc2)c1Nc1ccc(F)cc1F)N1CC(O)C1

Row | IC50 [nM] | SMILES
25 | < 1000 | Cc1cc(Nc2c(C(=O)N3CCC[C@@H]3CO)sc3c2ccc(=O)n3-c2ccc(F)cc2)ccc1F
26 | < 1000 | NC[C@H]1CCCN1C(=O)c1sc2c(ccc(=O)n2-c2ccccc2)c1Nc1ccc(F)cc1F
27 | < 1000 | N#Cc1ccccc1Nc1c(C(=O)N2CC[C@@H](O)C2)sc2c1ccc(=O)n2-c1ccccc1
28 | < 1000 | Cc1ccc(-n2c(=O)ccc3c(Nc4ccc(F)c(C)c4)c(C(=O)N4CC[C@H](O)C4)sc32)cc1
29 | < 1000 | Cc1cc(Nc2c(C(=O)N3CC[C@H](O)C3)sc3c2ccc(=O)n3-c2ccccc2)ccc1F
30 | < 1000 | Cc1cc(Nc2c(C(=O)N3CCC[C@@H]3CO)sc3c2ccc(=O)n3-c2ccc(Cl)cc2)ccc1F
31 | < 1000 | Cc1ccc(-n2c(=O)ccc3c(Nc4ccc(F)cc4F)c(C(=O)N4CC[C@H](O)C4)sc32)cc1
32 | < 1000 | O=C(c1sc2c(ccc(=O)n2-c2ccccc2)c1Nc1ccccc1Cl)N1CCC[C@H]1CO
33 | < 1000 | O=C(c1sc2c(ccc(=O)n2-c2ccccc2)c1Nc1ccc(F)cc1F)N1CC[C@@H](O)C1
34 | < 1000 | NC1CN(C(=O)c2sc3c(ccc(=O)n3-c3ccccc3)c2Nc2ccc(F)cc2F)C1
35 | < 1000 | O=C(c1sc2c(ccc(=O)n2-c2ccccc2)c1Nc1ccc(F)cc1F)N1C[C@@H](O)[C@@H](O)C1
36 | < 1000 | O=C(c1sc2c(ccc(=O)n2-c2ccccc2)c1Nc1ccc(F)cc1F)N1CCC(O)CC1
37 | < 1000 | Cc1cccc(Nc2c(C(=O)N3CCC[C@@H]3CO)sc3c2ccc(=O)n3-c2cccc(C)c2)c1
38 | < 1000 | Cc1cc(Nc2c(C(=O)N3CCC[C@H]3CN)sc3c2ccc(=O)n3-c2ccccc2)ccc1F
39 | < 1000 | Cc1cc(Nc2c(C(=O)N3CCC[C@H]3CO)sc3c2ccc(=O)n3-c2ccccc2)ccc1F
40 | < 1000 | Cc1cc(Nc2c(C(=O)N3CC[C@H](N)C3)sc3c2ccc(=O)n3-c2ccccc2)ccc1F
41 | < 1000 | O=C(c1sc2c(ccc(=O)n2-c2ccccc2)c1Nc1cccc(Cl)c1)N1CCC[C@@H]1CO
42 | < 1000 | N[C@@H]1CCN(C(=O)c2sc3c(ccc(=O)n3-c3ccccc3)c2Nc2ccc(F)cc2F)C1
43 | < 1000 | O=C(c1sc2c(ccc(=O)n2CC2CC2)c1Nc1ccccc1)N1CCC[C@@H]1CO
44 | < 1000 | O=C(c1sc2c(ccc(=O)n2-c2ccc(F)cc2)c1Nc1ccc(F)cc1F)N1CC[C@H](O)C1
45 | < 1000 | O=C(c1sc2c(ccc(=O)n2-c2ccc(F)cc2)c1Nc1ccc(F)cc1F)N1CCC[C@@H]1CO
46 | < 1000 | N[C@H]1CCN(C(=O)c2sc3c(ccc(=O)n3-c3ccccc3)c2Nc2ccc(F)cc2F)C1
47 | < 1000 | Cc1cc(Nc2c(C(=O)N3CC[C@@H](N(C)C)C3)sc3c2ccc(=O)n3-c2ccccc2)ccc1F
48 | < 1000 | Cc1cccc(-n2c(=O)ccc3c(Nc4ccc(F)c(C)c4)c(C(=O)N4CCC[C@@H]4CO)sc32)c1

Row | IC50 [nM] | SMILES
49 | < 1000 | Cc1cc(Nc2c(C(=O)N3CC(O)C3)sc3c2ccc(=O)n3-c2ccccc2)ccc1F
50 | < 1000 | Cc1cc(Nc2c(C(=O)N3CC[C@H](O)C3)sc3c2ccc(=O)n3-c2ccccc2Cl)ccc1F
51 | < 1000 | CC(C)(O)[C@@H]1CCCN1C(=O)c1sc2c(ccc(=O)n2-c2ccccc2)c1Nc1ccc(F)cc1F
52 | < 1000 | NC[C@@H]1CCCN1C(=O)c1sc2c(ccc(=O)n2-c2ccccc2)c1Nc1ccc(F)cc1F
53 | < 1000 | O=C(c1sc2c(ccc(=O)n2-c2ccccc2)c1Nc1ccc(F)c(Cl)c1)N1CCC[C@@H]1CO
54 | < 1000 | Cc1cccc(-n2c(=O)ccc3c(Nc4ccc(F)c(C)c4)c(C(=O)N4CCC[C@H]4CO)sc32)c1
55 | < 1000 | Cc1ccc(-n2c(=O)ccc3c(Nc4ccc(F)cc4F)c(C(=O)N4CCC[C@@H]4CO)sc32)cc1
56 | < 1000 | CN(C)[C@@H]1CCN(C(=O)c2sc3c(ccc(=O)n3-c3ccccc3)c2Nc2ccc(F)cc2F)C1
57 | < 1000 | N#Cc1ccccc1Nc1c(C(=O)N2CC[C@H](O)C2)sc2c1ccc(=O)n2-c1ccccc1
58 | < 1000 | Cc1cccc(Nc2c(C(=O)N3CC[C@H](O)C3)sc3c2ccc(=O)n3-c2ccccc2Cl)c1
59 | < 1000 | O=C(c1sc2c(ccc(=O)n2-c2ccccc2)c1Nc1ccc(F)cc1F)N1C[C@H](O)[C@@H](O)C1
60 | < 1000 | Cc1cc(Nc2c(C(=O)N3CC[C@H](N(C)C)C3)sc3c2ccc(=O)n3-c2ccccc2)ccc1F
61 | < 1000 | NC1CCN(C(=O)c2sc3c(ccc(=O)n3-c3ccccc3)c2Nc2ccc(F)cc2F)CC1
62 | < 1000 | O=C(c1sc2c(ccc(=O)n2-c2ccccc2)c1Nc1ccccc1Cl)N1CCC[C@@H]1CO
63 | < 1000 | Cc1cc(Nc2c(C(=O)N3CCC[C@@H]3CO)sc3c2ccc(=O)n3-c2ccccc2Cl)ccc1F
64 | < 1000 | N#Cc1ccccc1Nc1c(C(=O)N2CCC[C@H]2CO)sc2c1ccc(=O)n2-c1ccccc1
65 | < 1000 | O=C(c1sc2c(ccc(=O)n2-c2ccccc2Cl)c1Nc1ccc(F)cc1F)N1CC[C@@H](O)C1
66 | < 1000 | O=C(c1sc2c(ccc(=O)n2-c2ccccc2Cl)c1Nc1ccc(F)cc1F)N1CCC[C@@H]1CO
67 | < 1000 | Cc1cc(Nc2c(C(=O)N3CC[C@H](O)C3)sc3c2ccc(=O)n3-c2ccc(F)cc2)ccc1F
68 | < 1000 | CN(C)[C@H]1CCN(C(=O)c2sc3c(ccc(=O)n3-c3ccccc3)c2Nc2ccc(F)cc2F)C1
69 | < 1000 | COC[C@@H]1CCCN1C(=O)c1sc2c(ccc(=O)n2-c2ccccc2)c1Nc1ccccc1
70 | < 1000 | O=C(c1sc2c(ccc(=O)n2-c2ccccc2)c1Nc1ccc(F)cc1F)N1CCC[C@@H]1CO
71 | < 1000 | O=C(c1sc2c(ccc(=O)n2-c2ccccc2)c1Nc1ccc(F)cc1F)N1CCCC(O)C1 (configuration not stated)
72 | < 1000 | CN(C)C1CCN(C(=O)c2sc3c(ccc(=O)n3-c3ccccc3)c2Nc2ccc(F)cc2F)CC1
